In patent publication US8372397B2, “Methods for regulation of stem cells” (priority 2004, dated 2013):

Tests used:
[1] = system: GSK-3; conditions: Ring et al. 2003 / Cline et al. 2002, cited from earlier work; for EC50: read-out: half-maximal effective concentration [EC50]
[2] = mouse, in vivo, ip, 30 mg/kg

Row | Structure (SMILES) | selectivity for GSK-3 [1] | EC50 [1] [nM] | glycemic state (blood glucose) of transplanted recipients [2]
1 | O=[N+]([O-])c1ccc(NCCNc2ncc(-c3ncc[nH]3)c(-c3ccc(Cl)cc3Cl)n2)nc1 [CHIR-837] | > 5,000 fold | 375 | –
2 | Cc1c[nH]c(-c2cnc(NCCNc3ccc(C#N)cn3)nc2-c2ccc(Cl)cc2Cl)n1 [CHIR-911] | – | […] | maintaining a normoglycemic state
